Data from PubChem BioAssay (NCI).
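Test compounds were applied to cells in 96-well plates for 48 hours at 5 doses. TGI denotes the concentration required for complete inhibition of growth.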

Key:
Experiment in all cases: NCI anticancer screen, dose series, 48 h
SK-MEL-5 melanoma = test system: SK-MEL-5 melanoma
DU-145 prostate = test system: DU-145 prostate
SF-295 CNS = test system: SF-295 CNS
LOX IMVI melanoma = test system: LOX IMVI melanoma
K-562 leukemia = test system: K-562 leukemia
OVCAR-5 ovarian = test system: OVCAR-5 ovarian
U251 CNS = test system: U251 CNS
SK-MEL-28 melanoma = test system: SK-MEL-28 melanoma
A498 renal = test system: A498 renal
CAKI-1 renal = test system: CAKI-1 renal
SK-MEL-2 melanoma = test system: SK-MEL-2 melanoma
RXF 393 renal = test system: RXF 393 renal
HCC-2998 colon = test system: HCC-2998 colon
HS 578T breast = test system: HS 578T breast
SW-620 colon = test system: SW-620 colon
KM12 colon = test system: KM12 colon
UO-31 renal = test system: UO-31 renal
HOP-92 NSCLC = test system: HOP-92 NSCLC
SNB-75 CNS = test system: SNB-75 CNS
T-47D breast = test system: T-47D breast
A549 NSCLC = test system: A549 NSCLC
UACC-62 melanoma = test system: UACC-62 melanoma
SR leukemia = test system: SR leukemia
SNB-19 CNS = test system: SNB-19 CNS
SK-OV-3 ovarian = test system: SK-OV-3 ovarian
OVCAR-4 ovarian = test system: OVCAR-4 ovarian
MALME-3M melanoma = test system: MALME-3M melanoma
MOLT-4 leukemia = test system: MOLT-4 leukemia
NCI-H226 lung = test system: NCI-H226 lung
SF-539 CNS = test system: SF-539 CNS
NCI-H460 lung = test system: NCI-H460 lung
OVCAR-8 ovarian = test system: OVCAR-8 ovarian
PC-3 prostate = test system: PC-3 prostate
BT-549 breast = test system: BT-549 breast
TK-10 renal = test system: TK-10 renal
ACHN renal = test system: ACHN renal
HT29 colon = test system: HT29 colon
HL-60(TB) leukemia = test system: HL-60(TB) leukemia
CCRF-CEM leukemia = test system: CCRF-CEM leukemia
HOP-62 NSCLC = test system: HOP-62 NSCLC
HCT-116 colon = test system: HCT-116 colon
EKVX NSCLC = test system: EKVX NSCLC
HCT-15 colon = test system: HCT-15 colon
786-0 renal = test system: 786-0 renal
SN12C renal = test system: SN12C renal
OVCAR-3 ovarian = test system: OVCAR-3 ovarian
RPMI-8226 leukemia = test system: RPMI-8226 leukemia
MDA-MB-435 = test system: MDA-MB-435
NCI/ADR-RES ovarian = test system: NCI/ADR-RES ovarian
NCI-H522 lung = test system: NCI-H522 lung
MDA-N = test system: MDA-N
NCI-H23 lung = test system: NCI-H23 lung
M14 melanoma = test system: M14 melanoma
MCF7 breast = test system: MCF7 breast
IGROV1 ovarian = test system: IGROV1 ovarian
COLO 205 colon = test system: COLO 205 colon
SF-268 CNS = test system: SF-268 CNS

COc1oc(C(=O)NC2CCCCC2)c(-c2ccc(Cl)cc2)c1S(=O)(=O)c1ccccc1
TGI (SK-MEL-5 melanoma): > 100 µM | TGI (DU-145 prostate): > 74.4 µM | TGI (SF-295 CNS): > 62 µM | TGI (LOX IMVI melanoma): 7.54 µM | TGI (K-562 leukemia): > 52.4 µM | TGI (OVCAR-5 ovarian): > 100 µM | TGI (U251 CNS): 7.61 µM | TGI (SK-MEL-28 melanoma): > 100 µM | TGI (A498 renal): 4.08 µM | TGI (CAKI-1 renal): 10.7 µM | TGI (SK-MEL-2 melanoma): 39 µM | TGI (RXF 393 renal): 9.76 µM | TGI (HCC-2998 colon): > 100 µM | TGI (HS 578T breast): 68.6 µM | TGI (SW-620 colon): > 100 µM | TGI (KM12 colon): 25.2 µM | TGI (UO-31 renal): 3.22 µM | TGI (HOP-92 NSCLC): 3.06 µM | TGI (SNB-75 CNS): > 100 µM | TGI (T-47D breast): > 100 µM | TGI (A549 NSCLC): > 100 µM | TGI (UACC-62 melanoma): 72.2 µM | TGI (SR leukemia): > 25.3 µM | TGI (SNB-19 CNS): > 100 µM | TGI (SK-OV-3 ovarian): > 100 µM | TGI (OVCAR-4 ovarian): 3.51 µM | TGI (MALME-3M melanoma): > 45.9 µM | TGI (MOLT-4 leukemia): > 75.2 µM | TGI (NCI-H226 lung): > 100 µM | TGI (SF-539 CNS): 14.4 µM | TGI (NCI-H460 lung): > 36.1 µM | TGI (OVCAR-8 ovarian): > 19.8 µM | TGI (PC-3 prostate): > 41.3 µM | TGI (BT-549 breast): > 22.1 µM | TGI (TK-10 renal): > 89.1 µM | TGI (ACHN renal): > 100 µM | TGI (HT29 colon): 5.42 µM | TGI (HL-60(TB) leukemia): 6.4 µM | TGI (CCRF-CEM leukemia): 4.66 µM | TGI (HOP-62 NSCLC): 22 µM | TGI (HCT-116 colon): > 100 µM | TGI (EKVX NSCLC): > 30.9 µM | TGI (HCT-15 colon): > 100 µM | TGI (786-0 renal): 3.59 µM | TGI (SN12C renal): > 46.2 µM | TGI (OVCAR-3 ovarian): 3.59 µM | TGI (RPMI-8226 leukemia): 5.59 µM | TGI (MDA-MB-435): 28.9 µM | TGI (NCI/ADR-RES ovarian): 8.42 µM | TGI (NCI-H522 lung): 2.94 µM | TGI (MDA-N): > 100 µM | TGI (NCI-H23 lung): > 25.5 µM | TGI (M14 melanoma): > 100 µM | TGI (MCF7 breast): > 100 µM | TGI (IGROV1 ovarian): 3.35 µM | TGI (COLO 205 colon): 44.9 µM | TGI (SF-268 CNS): 10.8 µM
